Here are results for three molecules from patent US8703825B2, “Compounds, use thereof as medicaments, and method of preparation thereof” (Universite de Lorraine, priority 2008, dated 2014).

As usually defined, the MIC is the lowest concentration found to suppress growth. What is called CC50 is the concentration giving 50% cytotoxicity. A higher CC50 goes with better tolerance by the cells.

In brackets after ≈: the same amount, converted by molar mass. Read-outs that look alike come from different tables or passages of the source.

Holding throughout (type): cell-based
The test system of series [1] is E. faecalis resistant to teicoplanin and to vancomycin (vanA gene) (EfR2). Nature of the series: MIC by microdilution, clinical isolate. Particulars: Enterococcus faecalis. As for the experimental part:
(§1) The study also included 5 clinical isolates, obtained from rectal samples and/or from haemoculture: • […] E. coli (EcR1), • methicillin-resistant S. aureus (mecA gene) (SaR1), • vancomycin-resistant E. faecium (vanB gene) (EfR1), • E. faecalis resistant to teicoplanin and to vancomycin (vanA gene) (EfR2), and • P. aeruginosa overexpressing an efflux pump (PaRl).
(§2) The isolates were selected on the basis of their resistance profile. The resistance profiles were determined on VITEK2 (BioMérieux, France).
(§3) The bacteria are cultivated either on Mueller-Hinton agar (Difco, 225250), or in Mueller-Hinton broth (Difco, 275730), at 35° C. [Grare M, Mourer M, Fontanay S, Regnouf-de-Vains J B, Finance C, Duval R E. In vitro activity of para-guanidinoethylcalix[4]arene against susceptible and antibiotic-resistant Gram-negative and Gram-positive bacteria. J. Antimicrob Chemother. 2007; 60: 575-81].
(§4) The various molecules tested were prepared in the form of aqueous solution at 10^−2 mol/L. The solutions used for the biological tests are freshly prepared, and stored for a week at most, at 4° C. The solutions are filtered through a filter with pores of 0.22 μm (Millex®GP; 0.22 μm; Millipore; France) before each test.
(§5) Procedure for determining the Minimum Inhibitory Concentration (MIC)
(§6) The minimum inhibitory concentrations (MIC) were determined by the standardized method of microdilution in liquid medium (96-well microplate, U-shaped bottom, Greiner), in Mueller-Hinton broth, with a final inoculum of 10^5-10^6 CFU/mL, depending on the bacterial species, in accordance with the recommendations of the CLSI.
(§7) For the determination of MIC, bacterial suspensions are prepared from an isolated colony, taken from a Mueller-Hinton agar, taken up in 5 mL of Mueller-Hinton broth. After 24 h of growth, the bacterial suspensions are diluted in sterile distilled water in order to obtain an inoculum of 10^5-10^6 CFU/mL. The purity of the bacterial suspensions is tested by isolation on agar and Gram staining.
(§8) The results are the mean value of 4 independent experiments.
(In general: Broth dilution looks for growth in wells or tubes with falling amounts of substance.)

Series [2] concerns P. aeruginosa overexpressing an efflux pump (PaR1). Nature of the series: MIC by microdilution, clinical isolate. Particulars: Pseudomonas aeruginosa. The method, then: as §1, §2, §3, §4, §5, §6, §7, §8
Series [3] deals with MRSA (mecA gene), methicillin-resistant S. aureus (SaR1). Nature of the series: MIC by microdilution, clinical isolate. Particulars: Staphylococcus aureus. As for the experimental part: as §1, §2, §3, §4, §5, §6, §7, §8
In series [4] the test system is vancomycin-resistant E. faecium (vanB gene) (EfR1). In words: MIC by microdilution, clinical isolate. Conditions: Enterococcus faecium. As for the experimental part: as §1, §2, §3, §4, §5, §6, §7, §8
Series [5] can be described thus: in vitro. Particulars: human. The text has this:
(§9) The eukaryotic cells used in our study are HaCaT cells (human keratinocytes), which were kindly supplied by the Pierre Fabre Institute (Toulouse, France); and MRC-5 cells (human embryonic fibroblasts), which were obtained from the company BioMérieux (Lyons, France). These cells are cultivated in DMEM (“Dulbecco's modified Eagle's medium”, Invitrogen 61965) for the HaCaT cells, and MEM (“modified Eagle's medium”, Invitrogen 41090); 10% of fetal calf serum (FCS, Invitrogen, 10270, Batch 40Q5150K) in a humid chamber at 37° C., under 5% CO2. The HaCaT and MRC-5 cells were seeded at 10^4 cells/well in 96-well plates (Sarstedt 831835). After 48 h of growth, the culture medium is withdrawn and replaced with the various “test” solutions (volume=100 μL). After contact time of 24, 48 and/or 168 H,the viability or cytotoxicity tests are carried out.
(§10) b) Cytotoxicity Tests (Neutral Red Test)
(§11) The cytotoxicity test is based on incorporation of a vital dye, Neutral Red, in the lysosomes of the viable cells, after exposure of the cells to different concentrations of the test molecules. The quantity of dye, after extraction from the lysosomes, is quantified by means of a spectrophotometer and compared with that obtained in the case of “control” cells, not exposed to the test molecules.
(§12) The test was carried out as described previously [Borenfreund E, Puerner J A. Toxicity determined in vitro by morphological alterations and neutral red absorption. Toxicol Lett 1985; 24: 119-24, and Grare M, Mourer M, Fontanay S, Regnouf-de-Vains J B, Finance C, Duval R E. In vitro activity of para-guanidinoethylcalix[4]arene against susceptible and antibiotic-resistant Gram-negative and Gram-positive bacteria. J Antimicrob Chemother. 2007; 60: 575-81].
(§13) After contact times of 24, 48 and/or 168 h with the different concentrations of the test molecules, the medium contained in each well is withdrawn and replaced with 200 μL of medium without phenol red (Invitrogen, 51200) containing 50 μg/mL of Neutral Red for an additional 3 h of incubation. The cells are then rinsed 3 times with PBS solution. After the last washing with PBS, 200 μL of a solution with 1% acetic acid/50% ethanol is added to each well to extract the dye from the lysosomes of the viable cells. The absorbance is measured at 540 nm, with a reference wavelength at 690 nm, by means of an ELISA plate reader (Multiskan E X, Thermo Electron Corporation, France). The results are the mean of the values obtained for 8 wells per concentration and per unit time. Each experiment was carried out 3 times.

The test system of series [6] is Staphylococcus aureus ATCC 29213. Nature of the series: MIC by microdilution in liquid medium (CLSI / CA-SFM). Conditions: for Selectivity index (SI=IC50/MIC): S. aureus ATCC 29213, HaCaT cell lines, 24 h exposure; for MIC: Staphylococcus aureus.
Source text: (§14) According to the joint recommendations: • of the “Comite de l′Antibiogramme de la Société Française de Microbiologie” (Antibiogram Committee of the French Society of Microbiology) (CA-SFM) [CA-SFM. Communique 2007 (Edition of January 2007). http://www.sfm.asso.fr] and, • of the “Clinical and Laboratory Standards Institute” (CLSI, formerly “National Committee for Clinical Laboratory Standards” or NCCLS) [NCCLS. 2003. Methods for dilution antimicrobial susceptibility tests for bacteria that grow aerobically; approved standard M7-A6, 6th ed. National Committee for Clinical Laboratory Standards, Wayne, Pa., USA.], five reference bacterial strains were used for the study: Escherichia coli ATCC 25922, Pseudomonas aeruginosa ATCC 27853, Staphylococcus aureus ATCC 25923 & ATCC 29213 and Enterococcus faecalis ATCC 29212.
as §3, §4, §5, §6, §7, §8

Series [7] has as its system Pseudomonas aeruginosa ATCC 27853. The description is as above.
Source text: as §14, §3, §4, §5, §6, §7, §8

Series [8] concerns Staphylococcus aureus ATCC 25923. Described as above. Particulars: Staphylococcus aureus.
Source text: as §14, §3, §4, §5, §6, §7, §8

Series [9] deals with Escherichia coli ATCC 25922. The series is described as above. Conditions: Escherichia coli.
Source text: as §14, §3, §4, §5, §6, §7, §8

Series [10] deals with Enterococcus faecalis ATCC 29212. The description is as above.
Source text: as §14, §3, §4, §5, §6, §7, §8

Series [11] can be described thus: in vitro. Particulars: human.
Source text: as §9, §10, §11, §12, §13
This is another data set of the same source.

[12] abbreviates: clinical isolate, E. faecalis (vanA gene), read-out: MIC.
[13] abbreviates: clinical isolate, MRSA (mecA gene), read-out: MIC.
Where [14] appears, read: clinical isolate, E. faecium (vanB gene), read-out: MIC.
Where [15] appears, read: ATCC29213, S. aureus ATCC 29213, reference strain, read-out: MIC.
[16] abbreviates: ATCC27853, P. aeruginosa ATCC 27853, reference strain, read-out: MIC.
Setting [17] is: ATCC25923, S. aureus ATCC 25923, reference strain, read-out: MIC.
[18] abbreviates: ATCC25922, E. coli ATCC 25922, reference strain, read-out: MIC.
The mark [19] stands for this setting: ATCC29212, E. faecalis ATCC 29212, reference strain, read-out: MIC.

`N=C(N)c1ccc(OCCCCCCOc2ccc(C(=N)N)cc2)cc1` [HX, hexamidine]: the minimal inhibitory concentration (MIC) in series [1] is 4 µg/mL (≈ 11.3 µM); in series [2], 64 µg/mL (≈ 181 µM); in [3] (MRSA) it was 2 µg/mL (≈ 5.64 µM); in [4], 2 µg/mL (≈ 5.64 µM); in [6] (ATCC29213) it was below 1 µg/mL; in series [7] (ATCC27853) it was 32 µg/mL (≈ 90.3 µM). Also, the results for the MIC in [8] (ATCC25923), in series [9] (ATCC25922) and in [10] (ATCC29212) were 4 µg/mL (≈ 11.3 µM), 8 µg/mL (≈ 22.6 µM) and 2 µg/mL (≈ 5.64 µM), respectively. Besides, the CC50 at 24 h in “in vitro [5]” and in the series “in vitro [11]” was 8 to 16 µg/mL (≈ 22.6 to 45.1 µM) in each case. In addition, the half-maximal cytotoxic concentration (CC50) at 48 h in “in vitro [5]” and in the series “in vitro [11]” was 8 to 16 µg/mL (≈ 22.6 to 45.1 µM) in each case. Further, the “Selectivity index (SI=IC50/MIC)” value in series [6] is “≧32”.

As for `N=C(N)NCCc1ccc(OCCCCCCOc2ccc(CCNC(=N)N)cc2)cc1` [compound 6, 1,6-bis(4-(2-guanidinoethyl)phenoxy)hexane], the MIC in [1] (setting [12]) is 16 µg/mL (≈ 36.3 µM); in series [2], 32 µg/mL (≈ 72.6 µM); in [3] (setting [13]), below 1 µg/mL; in series [4] (setting [14]), 8 µg/mL (≈ 18.2 µM); in series [6] (setting [15]) it was 0.25 µg/mL (≈ 0.567 µM); in [7] (setting [16]) it was 16 µg/mL (≈ 36.3 µM). In addition, the MIC came out at 0.5 µg/mL (≈ 1.13 µM) in [8] (setting [17]), 4 µg/mL (≈ 9.08 µM) in series [9] (setting [18]) and 8 µg/mL (≈ 18.2 µM) in series [10] (setting [19]). In addition, the cytotoxic concentration (CC50) at 24 h in “in vitro [5]” and in the series “in vitro [11]” was 4 to 8 µg/mL (≈ 9.08 to 18.2 µM) each time. Moreover, the CC50 at 48 h in the series “in vitro [5]” lay within 2 to 4 µg/mL (≈ 4.54 to 9.08 µM). This molecule displayed a CC50 at 168 h in the series “in vitro [5]” of 1 to 2 µg/mL (≈ 2.27 to 4.54 µM). For the same molecule, in [6], the “Selectivity index (SI=IC50/MIC)” value is 16-32.

Regarding `[H]/N=C(\N/C(=N/[H])NCCCCCCNC(=N)NC(=N)Nc1ccc(Cl)cc1)Nc1ccc(Cl)cc1` [CHX, chlorhexidine], the MIC in series [1] (setting [12]) turned out to be 2 µg/mL (≈ 3.96 µM); in series [2], 8 µg/mL (≈ 15.8 µM); in [3] (setting [13]), 0.5 µg/mL (≈ 0.989 µM); in series [4] (setting [14]) it was 1 µg/mL (≈ 1.98 µM); in series [6] (setting [15]), 0.5 µg/mL (≈ 0.989 µM); in series [7] (setting [16]), 8 µg/mL (≈ 15.8 µM). Besides, the minimal inhibitory concentration (MIC) in [8] (setting [17]) was 0.5 µg/mL (≈ 0.989 µM); in series [9] (setting [18]), 0.25 µg/mL (≈ 0.495 µM); in series [10] (setting [19]), 2 µg/mL (≈ 3.96 µM). The CC50 at 24 h in the series “in vitro [5]” and in “in vitro [11]” was 8 to 16 µg/mL (≈ 15.8 to 31.7 µM) throughout. In series [6], the “Selectivity index (SI=IC50/MIC)” value is recorded as 32-64.
